What was measured:
[1] = test system: 13-series resolvins (RvT); assay: Lipid mediator profiling (LC-MS/MS) of paws in K/BxN serum inflammatory arthritis; type: in vivo, mice; conditions: for increase in overall RvT amounts in joints/paws compared with vehicle: paws collected day 8, 24 h after last dose
Description: (§1) JCI Insight. 2016; 1(5):e85922.
(§2) Blood and paws were collected either on day 8 after arthritis onset or 2 h after statin injection on day 7.
Ice-cold methanol containing 500 pg of each deuterated (d) internal standard: d8-SSHydroxyeicosatetraenoic, d4-Leukotriene (LT) B4, d5-Lipoxin (LX) A4, d-Prostaglandin (PG) E2 and d5-Resolvin D2, was added to samples. […] J Clin Invest. 2017; 127(1):169-182.
Using multiple reaction monitoring the concentrations of mediators identified in these paws were quantified.

Male C57BL/6 mice = assay: K/BxN serum inflammatory arthritis: 26-point clinical score, paw swelling, knee H&E histology; type: in vivo; conditions: 0.2 mg/Kg days 3, 5, 7
Description: Male C57BL/6 mice (11 weeks old) were procured from Charles River (Kent, UK). All animals were provided with standard laboratory diet and water ad libitum and kept on a 12 h light/dark cycle.
as §1, §2
Arthritis was initiated and mice were treated and disease progression monitored as described above.

[2] = test system: circulating monocytes, neutrophils and platelets; assay: Flow cytometry of circulating leukocytes and platelets in inflammatory arthritis; type: in vivo, mice; conditions: 0.2 mg/Kg days 3, 5, 7; blood day 8, vs vehicle
[3] = test system: joint non-classical monocytes, neutrophils and monocyte-derived macrophages; assay: Flow cytometry of leukocytes isolated from inflamed paws/joints; type: in vivo, mice; conditions: paws day 8, vs vehicle
Description: Front paws were collected on day 8 and digested to liberate infiltrating leukocytes. Leukocyte subsets were defined using antibodies against specific markers and flow cytometry. Trafficking and activation of (A) non-classical monocytes, (B) neutrophils, (C) monocyte-derived macrophages were assessed.
as §1
Paws were harvested and leukocytes isolated as described in Dalli J et al. 2015 (ibid). Briefly, paws were incubated in RPMI-1640 (containing […] collagenase D and 40 µg/mL DNAse I) at 37° C. for 30 minutes with vigorous agitation. Isolated cells were passed through a […] strainer and suspended in RPMI-1640 containing […] and 10% FBS, then centrifugated at 400×g, 10 minutes. Isolated cells were suspended in DPBS−/− containing 0.02% BSA and 1% Fc-blocking IgG (v/v), and incubated with 0.1% Live/Dead stain for 20 minutes on ice. Cells were washed using DPBS−/− and incubated with fluorescent-labelled antibodies for 45 minutes on ice. These were then washed and fixed using 1% paraformaldehyde. Absolute counting beads were used for leukocyte enumeration. Staining was then evaluated using a flow cytometry analyser and analysed using suitable software.
First, the trafficking of non-classical monocytes to the inflamed joints was assessed, given their role in disease onset and propagation of K/B×N serum initiated inflammatory arthritis.

[4] = test system: 13-series resolvins (RvT) and eicosanoids; conditions: blood 2 h after last statin dose on day 7
E. coli infections = conditions: atorvastatin and RvTs, additive actions; cited from earlier work
[5] = clearance from the circulation; cited from earlier work
[6] = celecoxib 10 mg/Kg 1 h prior to pravastatin or atorvastatin, paws day 8

CC(C)c1c(C(=O)Nc2ccccc2)c(-c2ccccc2)c(-c2ccc(F)cc2)n1CC[C@@H](O)C[C@@H](O)CC(=O)O [atorvastatin]
increase in overall RvT amounts in joints/paws compared with vehicle ([1]; 0.2 mg/Kg i.v. days 3, 5, 7): 43% | individual RvT increased in paws compared with vehicle ([1]; 0.2 mg/Kg i.v. days 3, 5, 7, paws day 8): increased RvT1, RvT2, RvT3 and RvT4 | joint swelling (midfoot pad thickness) (Male C57BL/6 mice): reduced joint swelling | H&E knee joint sections: leukocyte infiltration, pannus formation and joint damage (Male C57BL/6 mice; day 8, vs vehicle): reduced leukocyte infiltration, pannus formation and joint damage | maximum disease score (26-point clinical score) (Male C57BL/6 mice; maximum at day 5): 9.1±1.2 | neutrophil CD11b expression (circulating) [2]: significantly reducing | reduction in CD11b expression on circulating classical monocytes [2]: regulated | reduction in CD11b expression on circulating non-classical monocytes [2]: regulated | reduction in platelet CD62P expression [2]: ~60% | reduction in platelet-monocyte aggregates (both monocyte subsets) [2]: regulated | reduction in platelet-neutrophil aggregates [2]: significantly reducing | reduction in total numbers of non-classical monocytes recruited to the joints ([3]; 0.2 mg/Kg days 3, 5, 7): > 60% | CD11b expression on joint non-classical monocytes ([3]; 0.2 mg/Kg): reduction | MHCII expression on joint non-classical monocytes ([3]; 0.2 mg/Kg): significant reduction | joint neutrophil CD11b and MHCII expression ([3]; 0.2 mg/Kg): did not reach statistical significance | neutrophil trafficking to the joint ([3]; 0.2 mg/Kg): decreased | number of monocyte-derived macrophages in joints and their CD11b and MHCII expression ([3]; 0.2 mg/Kg): significant reduction | decrease in circulating PGD2 [4]: decreased | decrease in circulating PGE2 [4]: decreased | increased survival (E. coli infections): > 60%

Cc1ccc(-c2cc(C(F)(F)F)nn2-c2ccc(S(N)(=O)=O)cc2)cc1 [celecoxib]
reduction in joint RvT1 concentration compared to statin alone [1, 6]: > 75% | reduction in joint RvT compared to statin alone [1, 6]: ~60%

CC[C@H](C)C(=O)O[C@H]1C[C@H](O)C=C2C=C[C@H](C)[C@H](CC[C@@H](O)C[C@@H](O)CC(=O)O)[C@H]21 [pravastatin]
increase in overall RvT amounts in joints/paws compared with vehicle ([1]; 0.2 mg/Kg i.v. days 3, 5, 7): ~20% | reduction in disease activity compared with vehicle (Male C57BL/6 mice; day 5 through day 7): ~23% | reduction in CD11b expression on circulating classical monocytes [2]: ~40% | reduction in CD11b expression on circulating non-classical monocytes [2]: ~10% | reduction in platelet CD62P expression [2]: ~70% | reduction in platelet-monocyte aggregates (both monocyte subsets) [2]: ~35% | reduction in platelet-neutrophil aggregates [2]: ~25% | decrease in circulating PGD2 [4]: ~46% | decrease in circulating PGE2 [4]: ~29% | increase in plasma/peripheral blood RvT compared with vehicle [4]: > 100% | half-life [5]: ~3 h

Reference: patent US11531036B2, “Method and apparatus for determining the efficacy of statins for treating inflammatory diseases in individual patients” (Queen Mary University of London, priority 2017, dated 2022)
